# Measured values taken from PMC7395068, “The evolution of strategies to minimise the risk of human drug-induced liver injury (DILI) in drug discovery and development” (Archives of Toxicology, 2020).
# Like-named read-outs stand apart in the source and are kept apart here.
# Tests used:
# [1] = Plasma free fraction (fu) and unbound Cmax (Cmax,u); assay type: in vitro ADME, human; details: unbound plasma Cmax
# Method: The prediction of DILI severity was evaluated further using the 3D combined HCI assays using plasma-free fraction. The majority of fu values were obtained from literature, when unavailable in-house prediction was utilised. Unbound plasma Cmax concentrations (Cmax,u) were derived by multiplying total plasma Cmax with the corresponding free fraction (fu) for each compound.
# [2] = cited from earlier work
# [3] = system: THLE or HepG2 cells, isolated mitochondria, BSEP; details: cited from earlier work
# PHH = details: cited from earlier work
# hLiMTs [4] = details: cited from earlier work
# [5] = system: HepG2 C3A spheroid, BSEP, Glu/Gal in HepG2 cells, bioactivation; details: cited from earlier work
# [6] = plasma free fraction; cited from earlier work
# [7] = cited from earlier work; remark: listed apart in the source
# [8] = system: HepG2 cells, primary human hepatocytes; details: In vitro Assay; ref Garside 2014; cited from earlier work
# [9] = system: isolated mouse liver mitochondria; details: In vitro Assay; ref Porceddu 2012; cited from earlier work
# [10] = ref Chen 2011; cited from earlier work
# hLiMTs [11] = test: Combined HCI (HCS) and cellular ATP 3D assay in hLiMTs; details: for AC50 / minimal effective concentration: Homo sapiens; for DILI prediction hLiMTs (HCS-MEC): Microtissue model structural based (HCI), combined HCS and ATP, MEC < 25 × Cmax.tot cut-off; for hLiMTs <25x Avg Cmax ATP / hLiMTs <100x Avg Cmaxu ATP: ATP endpoint; for hLiMTs <25x Avg Cmax ATP / hLiMTs <25x Avg Cmax HCS / hLiMTs <25x Avg Cmax All: cut-off <25x Avg Cmax; for hLiMTs <100x Avg Cmaxu ATP / hLiMTs <100x Avg Cmaxu HCS / hLiMTs <100x Avg Cmaxu All: cut-off <100x Avg Cmaxu; for hLiMTs <25x Avg Cmax HCS / hLiMTs <100x Avg Cmaxu HCS: HCS endpoints; for hLiMTs <25x Avg Cmax All: all endpoints (ATP and HCS); for hLiMTs Cmax max All / hLiMTs Cmax min All / hLiMTs <10 uM All / hLiMTs <100x Avg Cmaxu All: all endpoints; for hLiMTs Cmax max All: Cmax max used; for hLiMTs Cmax min All: Cmax min used; for hLiMTs <10 uM All: cut-off <10 uM
# HepaRG spheroids = test: Combined HCI (HCS) and cellular ATP 3D assay in HepaRG spheroids; details: for HepaRG <25x Avg Cmax ATP / HepaRG <100x Avg Cmaxu ATP: ATP endpoint; for HepaRG <25x Avg Cmax ATP / HepaRG <25x Avg Cmax HCS / HepaRG <25x Avg Cmax All: cut-off <25x Avg Cmax; for HepaRG <100x Avg Cmaxu ATP / HepaRG <100x Avg Cmaxu HCS / HepaRG <100x Avg Cmaxu All: cut-off <100x Avg Cmaxu; for HepaRG <25x Avg Cmax HCS / HepaRG <100x Avg Cmaxu HCS: HCS endpoints; for HepaRG <25x Avg Cmax All: all endpoints (ATP and HCS); for HepaRG Cmax max All / HepaRG Cmax min All / HepaRG <10 uM All / HepaRG <100x Avg Cmaxu All: all endpoints; for HepaRG Cmax max All: Cmax max used; for HepaRG Cmax min All: Cmax min used; for HepaRG <10 uM All: cut-off <10 uM; for AC50 / minimal effective concentration: Homo sapiens; for HepaRG <25x Avg Cmax ATP / HepaRG <100x Avg Cmaxu ATP / HepaRG <25x Avg Cmax HCS / HepaRG <100x Avg Cmaxu HCS / HepaRG <25x Avg Cmax All / HepaRG Cmax max All / HepaRG Cmax min All / HepaRG <10 uM All / HepaRG <100x Avg Cmaxu All / AC50 / minimal effective concentration: HepaRG; for DILI prediction HepaRG spheroids (HCS-MEC): Microtissue model structural based (HCI), combined HCS and ATP, MEC < 25 × Cmax.tot cut-off
# [12] = system: primary human hepatocytes, NIH3T3 fibroblasts, BSEP, CYP3A4; details: cited from earlier work
# [13] = read-out: Human plasma Cmax; total plasma Cmax.tot, median of 9 literature references; cited from earlier work
# [14] = Modeled in vitro assays (cytotoxicity, mitochondrial dysfunction, BSEP), ref Aleo et al. 2019
# [15] = In vitro Assay, ref Proctor 2017
# [16] = In vitro Assay, ref Schadt 2015
compound,measurement,setting,value
CCN(CC)CCNC(=O)c1c(C)[nH]c(/C=C2\C(=O)Nc3ccc(F)cc32)c1C [sunitinib],"Human plasma Cmax,u",[1],3 nM
same,DILI severity category (Chen et al. [2016]),"[2]; LTKB DILIrank category, ref Chen et al. 2016",Most
same,DILI severity category (Chen 2016),"[2]; human DILI classification, LTKB DILIrank, ref Chen et al. 2016",Most
same,DILI severity category,"[2]; human DILI severity, ref Chen et al.",Most
same,"DILI +VE (5-8), DILI -VE (-4)",[2]; ref Chen 2016,+VE
same,DILI severity category,[2]; ref Chen 2016,vMost-DILI-Concern
same,Partition Hybrid HRM Score,"[3]; In vitro Assay, ref Aleo 2019",-VE
same,Ro2 Hybrid HRM Score,"[3]; In vitro Assay, ref Aleo 2019",-VE
same,"Partition Hybrid HRM Score ≥4, Aleo (2019)",[3]; [14],+VE (Partition Hybrid HRM Score ≥4)
same,"Partition Hybrid HRM Score ≥8, Aleo (2019)",[3]; [14],-VE
same,"Rule of Two hybrid HRM Score ≥3, Aleo (2019)",[3]; [14],-VE
same,"Rule of Two hybrid HRM Score ≥8, Aleo (2019)",[3]; [14],-VE
same,"PHH/100xCmax, Proctor (2017)","PHH; 2D PHH, ATP, IC50 < 100 × Cmax.tot, ref Proctor et al. 2017",+VE (IC50 < 100 × Cmax.tot)
same,"PHH/100uM, Proctor (2017)","PHH; 2D PHH, ATP, IC50 threshold 100 µM, ref Proctor et al. 2017",+VE (IC50 threshold of 100 µM)
same,PHH ATP <100uM,PHH; [15],+VE (IC50 threshold of 100 µM)
same,hLiMTs ATP <100uM,hLiMTs [4]; [15],+VE (IC50 threshold of 100 µM)
same,"hLiMTs/100xCmax, Proctor (2017)","hLiMTs [4]; hLiMTs, ATP, IC50 < 100 × Cmax.tot, ref Proctor et al. 2017",+VE (IC50 < 100 × Cmax.tot)
same,"hLiMTs/100uM, Proctor (2017)","hLiMTs [4]; hLiMTs, ATP, IC50 threshold 100 µM, ref Proctor et al. 2017",+VE (IC50 threshold of 100 µM)
same,"Bayesian Machine Learning DILI prediction, Williams (2019)","[5]; Bayesian modeling, ref Williams et al. 2019",+VE
same,Bayesian Machine Learning,"[5]; In vitro Assay, ref Williams 2019",+VE
same,fu,[6],0.050
same,Assigned DILI category,"[7]; Chen et al. 2016 or literature alignment, ref Chen et al. 2016",3
same,In vivo DILI,[7]; ref Aleo 2019,+VE
same,In vivo DILI,[7]; ref Garside 2014,+VE
same,In vivo DILI,[7]; ref Porceddu 2012,+VE
same,In vivo DILI,[7]; ref Proctor 2017,+VE
same,In vivo DILI,[7]; ref Williams 2019,+VE
same,Cluster 1-6 +VE Assay,[8],+VE
same,in vitro data EC2<=1x Cmax,[9],+VE
same,in vitro data EC20<=2uM,[9],-VE
same,DILI Score (FDA) (1-8),[10],8
same,AC50,hLiMTs [11]; read-out: ATP endpoint AC50,0.4 µM
same,minimal effective concentration,hLiMTs [11]; read-out: ATP endpoint MEC,0.347 µM
same,AC50,hLiMTs [11]; read-out: HCS endpoint AC50,0.421 µM
same,minimal effective concentration,hLiMTs [11]; read-out: HCS endpoint MEC,0.157 µM
same,DILI prediction hLiMTs (HCS-MEC),hLiMTs [11],+VE (MEC < 25 × Cmax.tot cut-off)
same,hLiMTs <25x Avg Cmax ATP,hLiMTs [11],+ve
same,hLiMTs <100x Avg Cmaxu ATP,hLiMTs [11],-ve
same,hLiMTs <25x Avg Cmax HCS,hLiMTs [11],+ve
same,hLiMTs <100x Avg Cmaxu HCS,hLiMTs [11],+ve (<100x Avg Cmaxu)
same,hLiMTs <25x Avg Cmax All,hLiMTs [11],+ve
same,hLiMTs Cmax max All,hLiMTs [11],+ve
same,hLiMTs Cmax min All,hLiMTs [11],+ve
same,hLiMTs <10 uM All,hLiMTs [11],+ve (<10 uM)
same,hLiMTs <100x Avg Cmaxu All,hLiMTs [11],+ve (<100x Avg Cmaxu)
same,HepaRG <25x Avg Cmax ATP,HepaRG spheroids,+ve
same,HepaRG <100x Avg Cmaxu ATP,HepaRG spheroids,-ve
same,HepaRG <25x Avg Cmax HCS,HepaRG spheroids,+ve
same,HepaRG <100x Avg Cmaxu HCS,HepaRG spheroids,+ve (<100x Avg Cmaxu)
same,HepaRG <25x Avg Cmax All,HepaRG spheroids,+ve
same,HepaRG Cmax max All,HepaRG spheroids,+ve
same,HepaRG Cmax min All,HepaRG spheroids,+ve
same,HepaRG <10 uM All,HepaRG spheroids,+ve (<10 uM)
same,HepaRG <100x Avg Cmaxu All,HepaRG spheroids,+ve (<100x Avg Cmaxu)
same,AC50,HepaRG spheroids; read-out: ATP endpoint AC50,3.11 µM
same,minimal effective concentration,HepaRG spheroids; read-out: ATP endpoint MEC,1.1 µM
same,AC50,HepaRG spheroids; read-out: HCS endpoint AC50,1.71 µM
same,minimal effective concentration,HepaRG spheroids; read-out: HCS endpoint MEC,0.281 µM
same,DILI prediction HepaRG spheroids (HCS-MEC),HepaRG spheroids,+VE (MEC < 25 × Cmax.tot cut-off)
CCOC(=O)CN[C@@H](C(=O)N1CC[C@H]1C(=O)NCc1ccc(/C(N)=N\O)cc1)C1CCCCC1 [ximelagatran],"Human plasma Cmax,u",[1],80 nM
same,"DILI in vitro assay prediction, Schadt (2015)","[12]; BSEP & Metabolism based, ref Schadt et al. 2015",-VE
same,Cellular toxicity (3T3 cells),[12]; [16],-VE
same,Combined Assay,[12]; [16],-VE
same,GSH adduct HML,[12]; [16],-VE
same,Hepatocyte cellular toxicity,[12]; [16],-VE
same,MitoTox 3T3,[12]; [16],-VE
same,TDI CYP3A4,[12]; [16],-VE
same,hBSEP inhibition,[12]; [16],-VE
same,Cmax,[13],380 nM
same,fu,[6],0.210
same,in vitro data EC2<=1x Cmax,[9],-VE
same,minimal effective concentration,hLiMTs [11]; read-out: ATP endpoint MEC,61.8 µM
same,DILI prediction hLiMTs (HCS-MEC),hLiMTs [11],-VE
same,hLiMTs <25x Avg Cmax ATP,hLiMTs [11],-ve
same,hLiMTs <100x Avg Cmaxu ATP,hLiMTs [11],-ve
same,hLiMTs <25x Avg Cmax HCS,hLiMTs [11],-ve
same,hLiMTs <100x Avg Cmaxu HCS,hLiMTs [11],-ve
same,hLiMTs <25x Avg Cmax All,hLiMTs [11],-ve
same,hLiMTs Cmax max All,hLiMTs [11],-ve
same,hLiMTs Cmax min All,hLiMTs [11],-ve
same,hLiMTs <10 uM All,hLiMTs [11],-ve
same,hLiMTs <100x Avg Cmaxu All,hLiMTs [11],-ve
same,HepaRG <25x Avg Cmax ATP,HepaRG spheroids,-ve
same,HepaRG <100x Avg Cmaxu ATP,HepaRG spheroids,-ve
same,HepaRG <25x Avg Cmax HCS,HepaRG spheroids,-ve
same,HepaRG <100x Avg Cmaxu HCS,HepaRG spheroids,-ve
same,HepaRG <25x Avg Cmax All,HepaRG spheroids,-ve
same,HepaRG Cmax max All,HepaRG spheroids,-ve
same,HepaRG Cmax min All,HepaRG spheroids,-ve
same,HepaRG <10 uM All,HepaRG spheroids,-ve
same,HepaRG <100x Avg Cmaxu All,HepaRG spheroids,-ve
same,minimal effective concentration,HepaRG spheroids; read-out: ATP endpoint MEC,149 µM
same,minimal effective concentration,HepaRG spheroids; read-out: HCS endpoint MEC,133 µM
same,DILI prediction HepaRG spheroids (HCS-MEC),HepaRG spheroids,-VE
